Assay results: patent US20190184054A1, “COMPOSITIONS FOR THE TREATMENT OF PAIN AND/OR INFLAMMATION” (BCN PEPTIDES. S.A., priority 2008, published 2019)
Primed or numbered codes have the meaning given here. *: point of attachment. PEG1′ = PEG spacer, n=1 in acetyl-PEGn N-terminus; PEG2′ = PEG spacer, n=2 in acetyl-PEGn N-terminus; PEG3′ = PEG spacer, n=3 in acetyl-PEGn N-terminus; PEG4′ = PEG spacer, n=4 in acetyl-PEGn N-terminus; PEG5′ = PEG spacer, n=5 in acetyl-PEGn N-terminus; Palmitoyl = CCCCCCCCCCCCCCCC(=O)*

Each molecule was assayed on inflammation produced by intraplantar injection of carrageenan (assay: carrageenan test: paw volume increase after intraplantar carrageenan, measured with a plethysmometer). Conditions: diclofenac 10 mg/kg, positive control used as the standard.
Assay type: in vivo
Text: Carrageenan is an irritant whose administration causes a powerful inflammation four hours after administration. The inflammatory process can be easily discerned as an increase in the volume of the paw that received carrageenan, measured with a plethysmometer. […] Therefore, the peptides of this invention have anti-inflammatory activity in vivo.

Row | Molecule | ANTI-INFLAMMATORY ACTIVITY [%]
1 | O=C(O)Cc1ccccc1Nc1c(Cl)cccc1Cl [diclofenac, reference compound] | 100

Same assay, conditions: peptides 5 mg/kg (im); decrease in inflammation standardized to positive control diclofenac

Row | Molecule | ANTI-INFLAMMATORY ACTIVITY [%]
2 | Ac-SEQ ID No. 26-NH2: acetyl N-terminus, amide C-terminus; SNAP-25-derived sequence SEQ ID No. 26 (Ac-EEMQRRA-NH2; listed as Homo sapiens) | 14
3 | Ac-PEG4-SEQ ID No. 11-NH2: acetyl-PEGn (n=4) N-terminus, amide C-terminus; SNAP-25 residues 12 to 17 (SEQ ID No. 11) ({Ac-PEG4′}-EEMQRR-NH2; listed as Homo sapiens) | 23
4 | Palm-SEQ ID No. 9-NH2: palmitoyl N-terminus, amide C-terminus; SNAP-25 residues 26 to 38 (SEQ ID No. 9) (Palmitoyl-LESTRRMLQLVEE-NH2; SMILES CCCCCCCCCCCCCCCC(=O)N[C@@H](CC(C)C)C(=O)N[C@@H](CCC(=O)O)C(=O)N[C@@H](CO)C(=O)N[C@H](C(=O)N[C@@H](CCCNC(=N)N)C(=O)N[C@@H](CCCNC(=N)N)C(=O)N[C@@H](CCSC)C(=O)N[C@@H](CC(C)C)C(=O)N[C@@H](CCC(N)=O)C(=O)N[C@@H](CC(C)C)C(=O)N[C@H](C(=O)N[C@@H](CCC(=O)O)C(=O)N[C@@H](CCC(=O)O)C(N)=O)C(C)C)[C@@H](C)O; listed as Homo sapiens) | 77
5 | Ac-PEG5-SEQ ID No. 11-NH2: acetyl-PEGn (n=5) N-terminus, amide C-terminus; SNAP-25 residues 12 to 17 (SEQ ID No. 11) ({Ac-PEG5′}-EEMQRR-NH2; listed as Homo sapiens) | 53
6 | Palm-SEQ ID No. 11-MH2: palmitoyl N-terminus, amide C-terminus; SNAP-25 residues 12 to 17 (SEQ ID No. 11) (Palmitoyl-EEMQRR-NH2; SMILES CCCCCCCCCCCCCCCC(=O)N[C@@H](CCC(=O)O)C(=O)N[C@@H](CCC(=O)O)C(=O)N[C@@H](CCSC)C(=O)N[C@@H](CCC(N)=O)C(=O)N[C@@H](CCCNC(=N)N)C(=O)N[C@@H](CCCNC(=N)N)C(N)=O; listed as Homo sapiens) | 81
7 | Ac-PEG1-SEQ ID No. 11-NH2: acetyl-PEGn (n=1) N-terminus, amide C-terminus; SNAP-25 residues 12 to 17 (SEQ ID No. 11) ({Ac-PEG1′}-EEMQRR-NH2; listed as Homo sapiens) | 21
8 | Ac-PEG2-SEQ ID No. 11-NH2: acetyl-PEGn (n=2) N-terminus, amide C-terminus; SNAP-25 residues 12 to 17 (SEQ ID No. 11) ({Ac-PEG2′}-EEMQRR-NH2; listed as Homo sapiens) | 29
9 | Ac-SEQ ID No. 11-NH2: acetyl N-terminus, amide C-terminus; SNAP-25 residues 12 to 17 (SEQ ID No. 11) (Ac-EEMQRR-NH2; listed as Homo sapiens) | 49
10 | Ac-SEQ ID No. 4-NH2: acetyl N-terminus, amide C-terminus; SNAP-25 residues 10 to 22 (SEQ ID No. 4) (Ac-ELEEMQRRADQLA-NH2; listed as Homo sapiens) | 65
11 | Ac-SEQ ID No. 9-NH2: acetyl N-terminus, amide C-terminus; SNAP-25 residues 26 to 38 (SEQ ID No. 9) (Ac-LESTRRMLQLVEE-NH2; listed as Homo sapiens) | 98
12 | Ac-PEG3-SEQ ID No. 11-NH2: acetyl-PEGn (n=3) N-terminus, amide C-terminus; SNAP-25 residues 12 to 17 (SEQ ID No. 11) ({Ac-PEG3′}-EEMQRR-NH2; listed as Homo sapiens) | 42
13 | Palm-SEQ ID No. 4-NH2: palmitoyl N-terminus, amide C-terminus; SNAP-25 residues 10 to 22 (SEQ ID No. 4) (Palmitoyl-ELEEMQRRADQLA-NH2; SMILES CCCCCCCCCCCCCCCC(=O)N[C@@H](CCC(=O)O)C(=O)N[C@@H](CC(C)C)C(=O)N[C@@H](CCC(=O)O)C(=O)N[C@@H](CCC(=O)O)C(=O)N[C@@H](CCSC)C(=O)N[C@@H](CCC(N)=O)C(=O)N[C@@H](CCCNC(=N)N)C(=O)N[C@@H](CCCNC(=N)N)C(=O)N[C@@H](C)C(=O)N[C@@H](CC(=O)O)C(=O)N[C@@H](CCC(N)=O)C(=O)N[C@@H](CC(C)C)C(=O)N[C@@H](C)C(N)=O; listed as Homo sapiens) | 58
